For one data set, the system named is Daphnia sp. The following applies: for Classification (aquatic toxicity): based on Daphnia 48 hours EC50.
In a further data set the test system is Fish. Description: Experimental fish 96-hour acute toxicity (values in brackets in Table 4). The data set is classed as in vivo. The conditions noted are these: experimental result (value in brackets).

Where two headings read alike, the source gives them in different places.

Consider `COCCOCCOCCNC(C)(C)C` [B, Methoxyethoxyethoxyethanol-tert-butylamine], for which the Biodegradability runs as follows: (day 0, 20° C.) 0; (day 1, 20° C.) 0.00; (day 2, 20° C.) 0.20; (day 3, 20° C.) 0.30; (day 4, 20° C.) 0.60; (day 5, 20° C.) 1.02. Further, the Biodegradability is, setting by setting: (day 6, 20° C.) 1.54; (day 7, 20° C.) 2.09; (day 8, 20° C.) 3.00; (day 9, 20° C.) 3.81; (day 10, 20° C.) 1.89; (day 11, 20° C.) 3.82. For the same compound, the Biodegradability is, setting by setting: (day 12, 20° C.) 4.04; (day 13, 20° C.) 4.70; (day 14, 20° C.) 5.70; (day 15, 20° C.) 6.03; (day 16, 20° C.) 6.56; (day 17, 20° C.) 7.14. For the same compound, the Biodegradability by setting is: (day 18, 20° C.) 7.65; (day 19, 20° C.) 9.52; (day 20, 20° C.) 7.55; (day 21, 20° C.) 7.55; (day 22, 20° C.) 7.55; (day 23, 20° C.) 7.55. Further, the Biodegradability runs as follows: (day 24, 20° C.) 7.55; (day 25, 20° C.) 7.55; (day 26, 20° C.) 7.55; (day 27, 20° C.) 7.55; (day 28, 20° C.) 7.55. Moreover, the “Classification (aquatic toxicity)” value in the data set with Daphnia sp. was “No classification”. Moreover, the “Daphnia Experimental, 48 hours, EC50” value in the data set with Daphnia sp. (experimental, 48 hours) was “EC50 > 100 mg/l”.

Consider `CC(C)(C)NCCOCCOCCNC(C)(C)C` [D, Bis-(t-butylamino ethoxy)ethane (bis-(t-butylamino)triethylene glycol)], for which the “Classification (aquatic toxicity)” value in the data set with Daphnia sp. is “Harmful to aquatic”.

For “Ethoxyethanol-tert-butylamine (tert-butylamino-ethoxy-ethanol)”, the Biodegradability reads like this: (day 0, 20° C.) 0; (day 1, 20° C.) 0.05; (day 2, 20° C.) 0.00; (day 3, 20° C.) 0.00; (day 4, 20° C.) 0.00; (day 5, 20° C.) 0.00. Further, the Biodegradability is reported as 0.00 (day 6, 20° C.); 0.06 (day 7, 20° C.); 1.68 (day 8, 20° C.); 3.34 (day 9, 20° C.); 0.47 (day 10, 20° C.); 0.56 (day 11, 20° C.). Further, the Biodegradability turned out to be 0.76 (day 12, 20° C.); 0.91 (day 13, 20° C.); 1.04 (day 14, 20° C.); 1.16 (day 15, 20° C.); 1.33 (day 16, 20° C.); 1.51 (day 17, 20° C.). For the same compound, the Biodegradability reads like this: (day 18, 20° C.) 1.56; (day 19, 20° C.) 1.58; (day 20, 20° C.) 1.71; (day 21, 20° C.) 1.89; (day 22, 20° C.) 2.00; (day 23, 20° C.) 1.95. The Biodegradability is, setting by setting: (day 24, 20° C.) 2.00; (day 25, 20° C.) 2.06; (day 26, 20° C.) 2.06; (day 27, 20° C.) 2.06; (day 28, 20° C.) 2.06. Also, the “Fish 96-hour LC50” value in the data set with Fish is 225 µg/mL. In the data set on Daphnia sp., the “Classification (aquatic toxicity)” value is listed as “Harmful to aquatic”. Moreover, in the data set with Daphnia sp. (experimental result (value in brackets)), the “Daphnia 48-hour LC50” value amounted to 31.6 µg/mL.

(Values after patent US20130142717A1, “OFFSHORE GAS SEPARATION PROCESS” (priority 2011, published 2013).)
